{"source": "BindingDB's records for doi:10.1124/jpet.105.085829", "about": "(Duquesne University, 2005)", "molecular_target": "Sodium-dependent dopamine transporter (Rattus norvegicus, UniProt P23977)", "sequence (P23977 whole entry)": "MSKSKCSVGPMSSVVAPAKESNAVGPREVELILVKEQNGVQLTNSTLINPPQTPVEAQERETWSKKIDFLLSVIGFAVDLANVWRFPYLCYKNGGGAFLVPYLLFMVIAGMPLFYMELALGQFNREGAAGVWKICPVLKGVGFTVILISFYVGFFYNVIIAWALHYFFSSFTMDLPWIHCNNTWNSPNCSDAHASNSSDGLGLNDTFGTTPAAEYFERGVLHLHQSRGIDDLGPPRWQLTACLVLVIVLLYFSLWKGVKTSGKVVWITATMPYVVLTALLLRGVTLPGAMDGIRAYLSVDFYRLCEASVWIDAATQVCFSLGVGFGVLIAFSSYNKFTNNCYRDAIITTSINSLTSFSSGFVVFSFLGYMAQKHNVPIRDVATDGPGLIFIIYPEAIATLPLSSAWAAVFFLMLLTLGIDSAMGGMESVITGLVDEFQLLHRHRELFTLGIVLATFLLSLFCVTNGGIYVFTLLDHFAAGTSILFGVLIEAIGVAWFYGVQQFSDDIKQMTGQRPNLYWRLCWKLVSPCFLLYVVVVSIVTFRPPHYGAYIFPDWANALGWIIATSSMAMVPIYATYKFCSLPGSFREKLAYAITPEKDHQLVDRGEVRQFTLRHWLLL", "note": "Values joined by “and” are separate entries in the source; they are usually repeats but may differ in a detail not shown here. Equal values may be shown once."}
{"compound": "COC(=O)[C@@H]1CN(C)CC[C@@H]1c1ccc(Cl)cc1", "note": "[4-ARA-127]", "values": [{"measurement": "Ki", "value": "1630 nM and 3300 nM"}]}
{"compound": "CN1C2CCC1CC(OC(c1ccccc1)c1ccc(C(F)(F)F)cc1)C2", "note": "(stereo unspecified) [8-Methyl-3-[phenyl-(4-trifluoromethyl-phenyl)-methoxy]-8-aza-bicyclo[3.2.1]octane]", "values": [{"measurement": "Ki", "value": "1280 nM and 541 nM"}]}
{"compound": "COC(=O)C1C2CCC(C[C@@H]1OC(=O)c1ccccc1)O2", "note": "(stereo partly specified) [8-Oxa-norcocaine]", "values": [{"measurement": "Ki", "value": "9780 nM and 1560 nM"}]}
{"compound": "CC1CN(CCCn2c3ccccc3c3ccccc32)CC(C)N1", "note": "(stereo unspecified) [9-[3-(3,5-dimethylpiperazin-1-yl)propyl]-9H-carbazole]", "values": [{"measurement": "Ki", "value": "643 nM and 180 nM"}]}
{"compound": "O[C@]1(c2ccc(Cl)cc2)c2ccccc2C2=NCCN21", "note": "[Mazanor]", "values": [{"measurement": "Ki", "value": "31 nM and 13 nM"}]}
{"compound": "O=CN1C2CCC1CC(OC(c1ccc(F)cc1)c1ccc(F)cc1)C2", "note": "(stereo unspecified) [N-CHO-4,4'-diFBZT]", "values": [{"measurement": "Ki", "value": "> 10000", "unit": "nM"}]}
